The values below are quoted from earlier work in patent publication US20130137664A1, “LOW-DOSED SOLID ORAL DOSAGE FORMS FOR HRT” (BAYER INTELLECTUAL PROPERTY GMBH, priority 2010, published 2013).

The test system of the series is moderate or severe hot flushes in menopausal women. The note with it: 2 mg E2.

With `C[C@]12CC[C@@H]3c4ccc(O)cc4CC[C@H]3[C@@H]1CC[C@@H]2O` [E2, estradiol], the estrogen-related adverse events result is “increased”.
